Biological target: muscarinic receptor
Test: not given
Conditions: first of three sites (high affinity); read-out: affinity of site labeled by 3H-Oxo; cited from earlier work

| SMILES | Kd [nM] |
| --- | --- |
| C[N+](C)(C)CC#CCN1CCCC1=O [^3H-Oxo, ^3H-Oxotremorine-M] | 1.8 |

Same assay, conditions: second of three sites (medium affinity); read-out: affinity of site labeled by 3H-Oxo; cited from earlier work

| SMILES | Kd [nM] |
| --- | --- |
| C[N+](C)(C)CC#CCN1CCCC1=O [^3H-Oxo, ^3H-Oxotremorine-M] | 20 |

Same assay, conditions: third of three sites (low affinity); read-out: affinity of site labeled by 3H-Oxo; cited from earlier work

| SMILES | Kd [nM] |
| --- | --- |
| C[N+](C)(C)CC#CCN1CCCC1=O [^3H-Oxo, ^3H-Oxotremorine-M] | 3000 |

Biological target: T1, human m4 receptors (Homo sapiens, UniProt P08173)
T1 construct: expressed in transfected cells; host or cells: CHO K1
T1 sequence (P08173 whole entry): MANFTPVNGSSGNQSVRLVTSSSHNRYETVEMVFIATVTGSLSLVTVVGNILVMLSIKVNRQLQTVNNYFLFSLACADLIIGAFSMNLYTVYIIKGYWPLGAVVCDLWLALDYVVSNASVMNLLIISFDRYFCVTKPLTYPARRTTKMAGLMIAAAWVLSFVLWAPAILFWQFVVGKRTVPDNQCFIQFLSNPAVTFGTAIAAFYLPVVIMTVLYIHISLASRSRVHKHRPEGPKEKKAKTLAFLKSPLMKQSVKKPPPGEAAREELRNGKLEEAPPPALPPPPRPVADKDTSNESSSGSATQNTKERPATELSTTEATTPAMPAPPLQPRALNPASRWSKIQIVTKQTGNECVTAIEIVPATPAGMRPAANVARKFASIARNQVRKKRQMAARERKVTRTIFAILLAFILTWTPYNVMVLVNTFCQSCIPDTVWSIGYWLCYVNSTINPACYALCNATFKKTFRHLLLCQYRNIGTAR
Test: Cyclic AMP accumulation in pertussis toxin-treated CHO m4 cells
Type: cell-based
Conditions: stimulation of cyclic AMP production in CHO-m4 cells, forskolin present
Method: Cyclic AMP Accumulation in Pertussis Toxin-Treated CHO m4 Cells.
CHO K1 cells transfected with human m4 receptors were grown to near confluency in T-150 flasks using Dulbecco's Modified Eagle Medium (DMEM) containing 10% fetal bovine serum. Cells were detached with 0.05% trypsin, […], and were suspended in medium containing 100 ng/ml pertussis toxin. Cells were plated at 30,000 cells per well into 96 well plates. Eighteen to twenty hours later the medium was removed and the cells were washed with serum-free medium. Attached cells were incubated at 37° C. for one hour after addition of […] of serum free DMEM containing 1 mM 3-isobutyl-1-methylxanthine and 1 mM forskolin plus or minus drugs being tested. Incubations were terminated with […] per well of serum free DMEM containing 0.3% triton-X-100. After stopping incubations the plates were allowed to sit for 20 minutes to extract cAMP and samples were then diluted 2.5-fold and were assayed using the scintillation proximity assay of Amersham (Arlington Heights, Ill).
Representative results from the M4 assay are as follows:
Stimulation of cyclic AMP production in CHO-m4cells.

| SMILES | % Maximum Stimulation Compared to Oxotremorine-M [%] |
| --- | --- |
| O=C(NC1c2cc(N=CN3CCCCC3)ccc2CC1O)c1cc(F)cc(F)c1 (stereo not drawn) [Compound 98] | 73 |
| CN(C)C=Nc1ccc2c(c1)C(NC(=O)c1ccc(C(F)(F)F)cc1)C(O)C2 (stereo not drawn) [Compound 75] | 6 |
| CN(C)C=Nc1ccc2c(c1)C(NC(=O)c1cc(F)c(F)c(F)c1)C(O)C2 (stereo not drawn) [Compound 65] | 30 |
| CN(C)C=Nc1ccc2c(c1)C(NC(=O)c1ccc(Cl)nc1)C(O)C2 (stereo not drawn) [Compound 74] | 8 |
| CN(C)C=Nc1ccc2c(c1)C(NC(=O)c1cccc(C#N)c1)C(O)C2 (stereo not drawn) [Compound 61] | 39 |
| CN(C)C=Nc1ccc2c(c1)C(NC(=O)c1cc(Cl)cc(Cl)c1)C(O)C2 (stereo not drawn) [Compound 58] | 74 |
| CN(C)C=Nc1ccc2c(c1)C(NC(=O)c1cccc3ccccc13)C(O)C2 (stereo not drawn) [Compound 71] | 95 |
| CN(C)C=Nc1ccc2c(c1)C(NC(=O)c1cc(C(F)(F)F)cc(C(F)(F)F)c1)C(O)C2 (stereo not drawn) [Compound 60] | 100 |
| CN(C)C=Nc1ccc2c(c1)C(NC(=O)C1CCCC1)C(O)C2 (stereo not drawn) [Compound 62] | 27 |
| CN(C)C=Nc1ccc2c(c1)C(NC(=O)c1cc3ccccc3s1)C(O)C2 (stereo not drawn) [Compound 69] | 14 |
| CN(C)C=Nc1ccc2c(c1)C(NS(=O)(=O)c1ccc(Cl)c(Cl)c1)C(O)C2 (stereo not drawn) [Compound 72] | 4 |
| O=C(NC1c2cc(N=CN3CCCC3)ccc2CC1O)c1c(Cl)cc(Cl)cc1Cl (stereo not drawn) [Compound 47] | <20 |
| CCc1ccc(C(=O)NC2c3cc(N=CN(C)C)ccc3CC2O)cc1 (stereo not drawn) [Compound 67] | 7 |
| CCCCc1ccc(C(=O)NC2c3cc(N=CN(C)C)ccc3CC2O)cc1 (stereo not drawn) [Compound 70] | 18 |
| CN(C)C=Nc1ccc2c(c1)C(NC(=O)C(F)(F)F)C(O)C2 (stereo not drawn) [Compound 66] | 0 |
| CCCCc1ccc(C(=O)NC2c3cc(N=CN4CCCC4)ccc3CC2O)cc1 (stereo not drawn) [Compound 45] | <20 |
| CN(C)C=Nc1ccc2c(c1)C(NC(=O)c1cc(F)cc(C(F)(F)F)c1)C(O)C2 (stereo not drawn) [Compound 64] | 52 |
| O=C(NC1c2cc(N=CN3CCCCC3)ccc2CC1O)c1ccc(Cl)c(Cl)c1 (stereo not drawn) [Compound 77] | 214 |
| O=C(NC1c2cc(N=CN3CCCCC3)ccc2CC1O)c1cccc(Cl)c1Cl (stereo not drawn) [Compound 88] | 52 |
| CN(C)C=Nc1ccc2c(c1)C(NC(=O)c1ccc3ccccc3c1)C(O)C2 (stereo not drawn) [Compound 63] | 13 |
| CC(=Nc1ccc2c(c1)C(NC(=O)c1ccc(Cl)c(Cl)c1)C(O)C2)N(C)C (stereo not drawn) [Compound 76] | 130 |
| O=C(NC1c2cc(N=CN3CCCC3)ccc2CC1O)c1c(Cl)cccc1Cl (stereo not drawn) [Compound 46] | 154 |
| CN(C)C=Nc1ccc2c(c1)C(NC(=O)c1sccc1Cl)C(O)C2 (stereo not drawn) [Compound 68] | 0 |
| CN(C)C=Nc1ccc2c(c1)C(NC(=O)c1ccccc1)C(O)C2 (stereo not drawn) [Compound 57] | 5 |
| CN(C)C=Nc1ccc2c(c1)C(NC(=O)c1cccnc1Cl)C(O)C2 (stereo not drawn) [Compound 73] | 11 |
| CCCCOc1ccc(C(=O)NC2c3cc(N=CN(C)C)ccc3CC2O)cc1 (stereo not drawn) [Compound 59] | 22 |
| O=C(NC1c2cc(N=CN3CCCCC3)ccc2CC1O)c1cc(Cl)cc(Cl)c1 (stereo not drawn) [Compound 97] | 36 |

Reference: patent US6429317B1, “Indane derivatives for antipsychotic compositions” (priority 1996, dated 2002)
